Data taken from article PMC12320245 (International Journal of Biological Sciences, 2025).

Tests used:
[1] = test system: primary hippocampal neurons; test: Scratch injury: cell viability analysis; type: cell-based, rat; conditions: scratched neurons, 24 hours post-scratch, 10 μM AMX
Description: (§1) Primary hippocampal neurons were obtained from embryonic day 18 (E18) Sprague-Dawley rat embryos. Pregnant rats were anesthetized using 2-3% isoflurane in a gas mixture of 70% nitrous oxide and 30% oxygen. Following euthanasia, the hippocampi were carefully dissected, minced, and enzymatically dissociated using TrypLE Express (Gibco, NY, USA) for 10 minutes at 37°C. The tissue was further mechanically dissociated using fire-polished glass pipettes, and the resulting cell suspension was filtered through a 70 μm cell strainer to remove debris. Neurons were seeded at a density of 3 × 10^5 cells per well in 24-well plates pre-coated with poly-L-lysine (Sigma-Aldrich, Saint Louis, MO, USA). Cells were maintained in neurobasal medium supplemented with B-27 (Thermo Fisher Scientific, Waltham, MA, USA), GlutaMAX (Gibco), and penicillin-streptomycin. The cultures were incubated at 37.5°C in a humidified atmosphere containing 5% CO₂. […]
(§2) A scratch injury model was used to mimic TBI in vitro. […] After the treatment period, neuronal damage and recovery were assessed using appropriate evaluation methods.
[…] After incubation, absorbance was measured at 450 nm using a microplate reader (Spectramax, Molecular Devices Co., CA, USA). […]

[2] = test system: PDE4 in primary hippocampal neurons; test: Scratch injury: PDE4 expression (immunocytochemistry and Western blot); type: cell-based, rat; conditions: scratch-AMX vs scratch-vehicle, 24 hours after scratch
Description: as §1, with “penicillin-streptomycin.” for “penicillin-streptomycin. The cultures were incubated at 37.5°C in a humidified atmosphere containing 5% CO₂.”
as §2
Twenty-four hours after the scratch injury, cells were lysed using RIPA buffer (IBS-BR002, iNtRON, Republic of Korea) supplemented with protease and phosphatase inhibitors (Sigma, USA). […] Protein detection was performed using a chemiluminescence bioimaging device (Amersham Imager 680, Cytiva, MA, USA), and the results were analyzed to determine protein expression levels. […]

[3] = test system: primary hippocampal neurons; test: Scratch injury: lysosomal zinc (FluoZin-3 / LysoTracker); type: cell-based, rat; conditions: scratched neurons, 24 hours after scratch
Description: Primary hippocampal neurons were obtained from embryonic day 18 (E18) Sprague-Dawley rat embryos. Pregnant rats were anesthetized using 2-3% isoflurane in a gas mixture of 70% nitrous oxide and 30% oxygen. Following euthanasia, the hippocampi were carefully dissected, minced, and enzymatically dissociated using TrypLE Express (Gibco, NY, USA) for 10 minutes at 37°C. The tissue was further mechanically dissociated using fire-polished glass pipettes, and the resulting cell suspension was filtered through a 70 μm cell strainer to remove debris. Neurons were seeded at a density of 3 × 10^5 cells per well in 24-well plates pre-coated with poly-L-lysine (Sigma-Aldrich, Saint Louis, MO, USA). Cells were maintained in neurobasal medium supplemented with B-27 (Thermo Fisher Scientific, Waltham, MA, USA), GlutaMAX (Gibco), and penicillin-streptomycin. The cultures were incubated at 37.5°C in a humidified atmosphere containing 5% CO₂. After seven days of growth, neurons were fixed with 4% paraformaldehyde (PFA) for 15 minutes at room temperature and subsequently stored at 4°C until their further use for immunostaining.
as §2

hippocampus of TBI rats = test: Controlled cortical impact TBI: Fluoro-Jade B neuronal death; type: in vivo, rat; conditions: ipsilateral CA1, CA3, GCL, hilus, 24 hours post-TBI, vs TBI-vehicle
Description: This study used male Sprague-Dawley rats weighing 300-350 g and aged 8 weeks, obtained from DBL Co. (Chungcheongbuk-do, Republic of Korea). The rats were housed in a controlled environment with a temperature of 20 ± 2 °C, a relative humidity of 55 ± 5%, and a 12-hour light/dark cycle. They were provided ad libitum access to food and water. To minimize stress associated with transportation, animals underwent a one-week acclimatization period before the start of the experiments. All experimental procedures were conducted in compliance with the guidelines of the National Institutes of Health for the care and use of laboratory animals and were approved by the Hallym University Institutional Animal Care and Use Committee (protocol # Hallym 2022-23, approved on July 15, 2022). This manuscript follows the principles outlined in the Animal research: reporting in vivo experiments (ARRIVE) guidelines.
A controlled cortical impact (CCI) model was used to induce TBI in rats. […]
Neuronal death was assessed 24 hours after TBI via Fluoro-Jade B (FJB) staining, a method designed for detecting degenerating neurons. […] FJB-positive cells were quantified in hippocampal subregions, including CA1 (Cornu Ammonis 1), CA3 (Cornu Ammonis 3), GCL (granule cell layer), and the hilus.

CC(C)c1ccc2oc3nc(N)c(C(=O)O)cc3c(=O)c2c1 [AMX, amlexanox]
cell viability [1]: substantially improved cell viability | PDE4 levels [2]: significantly reduced | lysosomal zinc levels (FluoZin-3 / LysoTracker) [3]: restored lysosomal zinc levels to near-normal levels | number of FJB-positive degenerating neurons (hippocampus of TBI rats): significantly reduced the number of FJB-positive degenerating neurons
